In article PMC7917437 (Journal of Medicinal Chemistry, 2021):

Tests used:
[1] = system: chronic constriction injury model of neuropathy; assay: Chronic constriction injury model of neuropathy, von Frey assay; assay type: in vivo, male SD rats; conditions: AUC over 6 h post dose
clinical = conditions: both, human, plasma, oral
[2] = system: mouse, rat, monkey, and human hepatocyte incubations; assay: In vitro metabolism in hepatocyte incubations; assay type: in vitro ADME; conditions: HPLC and mass spectrometry
CYP2B6 = assay: CYP induction, mRNA by qRT-PCR in cultured human hepatocytes; assay type: in vitro ADME; conditions: up to 30 μM, i.e., < 2-fold change and/or <20% of the positive control
[3] = Phase 1a single ascending dose study in healthy volunteers
LPS-induced mouse model = LPS-induced mouse model ref 38; cited from earlier work
laminitis = conditions: cited from earlier work

half-life (clinical) [h]	putative metabolites detected [2]	effect on CYP2B6 mRNA levels (CYP2B6)	effective total AUC for a daily dosing regimen ([3]; calculated) [ng·h/mL]	SMILES	efficacy compared with pregabalin ([1]; at 10–20 fold lower doses, vs pregabalin (30 mg/kg) p = 0.039)	pain measured with a von Frey assay (mechanical withdrawal thresholds) ([1]; male SD rats, oral gavage, 3 mg/kg, vs PEG 300 p ≤ 0.001)	absorption ([3]; human, single oral doses)	neuroinflammation in the CNS (LPS-induced mouse model)	outcome in a laminitic horse scheduled for euthanasia (laminitis; after 5 days of treatment ref 49)	adverse effects from clinical exams and blood work (laminitis; horse, five-day treatment, once daily 0.1 mg/kg ref 49)	outcome in seven other laminitic horses (laminitis; when all other treatments failed ref 50)
42 to 59	seven	little or no effect	6	CC[C@H](C)C(=O)N1CCC(NC(=O)Nc2ccc(OC(F)(F)F)c(F)c2)CC1 [EC5026, (S)-1-(3-Fluoro-4-(trifluoromethoxy)phenyl)-3-(1-(2-methylbutanoyl)piperidin-4-yl)urea]	superior to pregabalin	blocked pain	well absorbed with linear dose-proportionality	prevent neuroinflammation	–	–	–
–	–	–	–	O=C(Nc1ccc(OC(F)(F)F)cc1)N[C@H]1CC[C@H](Oc2ccc(C(=O)O)cc2)CC1 [t-TUCB, trans-4-{4-[3-(4-trifluoromethoxy-phenyl)-ureido]-cyclohexyloxy}-benzoic acid]	–	–	–	–	complete recovery with no recurrent laminitis	no signs of adverse effects	showed improvement in disease
